Tested on: forskolin/IBMX-stimulated CFTR Cl current in ileum tissue
Assay: Short-circuit current of freshly excised ileum tissue measured by Ussing chamber
Assay type: cell-based, rabbit
Details: CFTR+/+ rabbits
Description: (Panel A) Immunocytochemistry of lungs and small intestines from CFTR+/+ and CFTR−/− rabbits. Red: CFTR; blue: nuclei. (Panel B) Short circuit current measurements of small intestines from CFTR+/+ and CFTR−/− rabbits after treated 1 μM indomethcin.
CFTR expression in the airways and in the small intestines of wild-type and CFTR−/− rabbits was evaluated by immunoflorescence. […] Next, CFTR Cl secretion in these animals were examined. Ileum tissues from CFTR+/+ and CFTR−/− rabbits were used for CFTR functional assay. Short-circuit currents from these tissues with muscle layer on serosal side removed were measured by Ussing chamber. […] This situation was also observed in ferrets and pigs.

Compound	forskolin-stimulated current blocked	forskolin-stimulated current blocked (GlyH101 at 10 μM)
CCCCNc1cc(C(=O)O)cc(S(N)(=O)=O)c1Oc1ccccc1 [bumetanide]	more than 50%	
O=C(CNc1ccc2ccccc2c1)N/N=C/c1cc(Br)c(O)c(Br)c1O [GlyH101]		Only a small fraction
